Consider six compounds from patent US10435379B2, “[4-(1,3,3-trimethyl-2-OXO-3,4-dihydro-1H-quinoxalin-7-yl)phenoxy]ethyloxy compound or salt thereof” (SANTEN PHARMACEUTICAL CO., LTD., priority 2015, dated 2019).

In one test the target is Recombinant human GR (Homo sapiens (Human), UniProt P04150). Description: GR binding activity evaluation test (GR competitive binding assay, fluorescence polarization). The note with it: 20 μM test compound solution, 10 μL/well; 2 mM DEX as positive control; 2 hours at room temperature. The protocol: In order to evaluate a binding activity of the present compound to GR, a GR receptor competitor assay was carried out by a fluorescence polarization method. In the assay, a GR competitive binding assay kit (manufactured by Invitrogen, cat No. P2816) was used for the assay, and a procedure was carried out according to the protocol attached to the kit. Hereinafter, the specific method will be described.
Recombinant human GR, sequence (P04150 whole entry): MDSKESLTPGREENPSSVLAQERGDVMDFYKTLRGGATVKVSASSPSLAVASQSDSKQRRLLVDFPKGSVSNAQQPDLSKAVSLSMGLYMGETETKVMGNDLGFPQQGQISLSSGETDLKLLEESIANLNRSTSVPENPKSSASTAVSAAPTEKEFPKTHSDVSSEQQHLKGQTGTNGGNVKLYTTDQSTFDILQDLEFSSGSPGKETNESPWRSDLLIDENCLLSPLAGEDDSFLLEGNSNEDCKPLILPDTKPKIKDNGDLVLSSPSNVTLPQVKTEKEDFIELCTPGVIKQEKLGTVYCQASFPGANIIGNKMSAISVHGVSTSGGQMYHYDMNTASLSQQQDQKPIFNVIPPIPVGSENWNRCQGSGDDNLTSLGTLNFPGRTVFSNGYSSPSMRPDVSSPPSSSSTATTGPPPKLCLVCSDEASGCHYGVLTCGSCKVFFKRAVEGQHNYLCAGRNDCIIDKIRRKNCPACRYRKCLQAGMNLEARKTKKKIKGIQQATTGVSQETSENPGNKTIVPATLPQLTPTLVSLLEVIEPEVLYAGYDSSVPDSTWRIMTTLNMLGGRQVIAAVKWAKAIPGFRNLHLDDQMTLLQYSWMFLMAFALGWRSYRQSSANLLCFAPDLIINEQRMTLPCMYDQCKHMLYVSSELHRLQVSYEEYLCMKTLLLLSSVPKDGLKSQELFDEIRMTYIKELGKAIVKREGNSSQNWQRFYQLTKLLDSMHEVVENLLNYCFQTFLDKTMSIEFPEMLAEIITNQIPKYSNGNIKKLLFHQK
GR screening buffer: A buffer containing 10 mM of potassium phosphate (pH 7.4), 20 mM of sodium molybdate (Na2MoO4), 0.1 mM of ethylene diamine tetraacetic acid (EDTA), 5 mM of dithiothreitol (DTT), 0.1 mM of stabilizing peptide and 2% of dimethylsulfoxide was prepared.
4×GS1 solution: Fluormone™ GS1, which is a fluorescent glucocorticoid ligand, was diluted with GR screening buffer, whereby a 4 nM solution was prepared. […]
5) The plate was incubated in a dark place at room temperature for 2 hours, and fluorescence polarization of each well was measured.
A GR binding ratio (%) was calculated from the following equation. GR binding ratio (%)=100×{1−(fluorescence polarization of test compound solution−average value of fluorescence polarization of positive control solution)/(average value of fluorescence polarization of negative control solution−average value of fluorescence polarization of positive control solution)} (Test Results and Discussion)
(Fluorescence polarisation rises when a labelled molecule tumbles more slowly, as on binding a larger partner.)
Regarding `COc1cc(OCC(O)CO)ccc1-c1ccc2c(c1COc1cc(F)ccc1C)N(C)C(=O)C(C)(C)N2` (stereo not drawn) [Compound 4-1, 7-[4-(2,3-dihydroxypropyl)oxy-2-methoxyphenyl]-8-(5-fluoro-2-methylphenoxymethyl)-1,3,3-trimethyl-3,4-dihydro-1H-quinoxalin-2-one], the “GR binding rate (%)” value was above 99%.

In a further test the test system is IL-6 production in human corneal epithelium cell line (HCE-T). The test is described as follows: IL-6 production inhibitory action evaluation test after LPS stimulation. It is filed as cell-based. The following applies: 4 hours, 100 μM test compound solution 10 μL/well, DEX treated group = 100. As to the method: To evaluate the action of the present compounds as a GR agonist, IL-6 production inhibitory action in human corneal epithelial cell line after LPS stimulation was examined The IL-6 production was measured by using the HTRF method (Cat No. 62IL6PEB manufactured by Cisbio Bioassays, Inc.) according to the attached protocol. The specific method is described below.
LPS solution: After dissolving LPS in PBS(−), the resulting solution was diluted with a culture solution, whereby an LPS solution with a 1 μg/mL concentration was prepared.
After dissolving the test compound in dimethylsulfoxide, the solution was diluted with a 10% FBS-DMEM/Ham's F12 medium, whereby a 100 μM of the test compound solution was prepared. […] In addition, DEX was similarly dissolved, whereby a 100 μM concentration of the DEX solution was prepared, and an IL-6 production inhibitory ratio of DEX was measured, and used for calculation of Efficacy (% DEX).
Used cells: human corneal epithelium cell line (HCE-T) (RIKEN, Institute of Physical and Chemical Research)
The cells continued to subculture according to this method were used for the test.
(Calculation of IL-6 Production Inhibitory Ratio)
The IL-6 production inhibitory ratio (%) was calculated by the following formula. IL-6 production inhibitory ratio (%)=100×{1−(IL-6 produced amount of each test compound solution−average value of IL-6 produced amount of negative control group)/(average value of IL-6 produced amount of positive control group−average value of IL-6 produced amount of negative control group)}(%)
Further, the IL-6 production inhibitory ratio (Efficacy (% DEX)) when the DEX treated group was made 100 was calculated. Efficacy (% DEX)=100×{(average value of IL-6 production inhibitory ratio of each test compound solution)/(average value of IL-6 production inhibitory ratio of DEX treated group)}(%)
In addition, IC50 was calculated according to a conventional method. IDBS XLfit4 was used for the calculation.
On to `COc1cc(OC[C@@H](O)CC#N)ccc1-c1ccc2c(c1COc1cc(F)ccc1C)N(C)C(=O)C(C)(C)N2` [Compound 5-2, (S)-7-[4-(3-cyano-2-hydroxypropyl)oxy-2-methoxyphenyl]-8-(5-fluoro-2-methyl-phenoxymethyl)-1,3,3-trimethyl-3,4-dihydro-1H-quinoxalin-2-one], for which the “IL-6 production inhibitory ratio (% DEX)” value is above 99 % DEX.

With `COc1cc(OC[C@H](O)CC#N)ccc1-c1ccc2c(c1COc1cc(F)ccc1C)N(C)C(=O)C(C)(C)N2` [Compound 5-1, (R)-7-[4-(3-cyano-2-hydroxypropyl)oxy-2-methoxyphenyl]-8-(5-fluoro-2-methyl-phenoxymethyl)-1,3,3-trimethyl-3,4-dihydro-1H-quinoxalin-2-one], the “IL-6 production inhibitory ratio (% DEX)” value is given as 98 % DEX. Same read-out and setting: the same measure for `CC[C@@H](O)COc1ccc(-c2ccc3c(c2COc2cc(F)ccc2C)N(C)C(=O)C(C)(C)N3)c(OC)c1` [Compound 1-4, (R)-8-(5-fluoro-2-methylphenoxymethyl)-7-[4-(2-hydroxybutyl)oxy-2-methoxyphenyl]-1,3,3-trimethyl-3,4-dihydro-1H-quinoxalin-2-one]: 92 % DEX; for `COc1ccc(O)cc1-c1ccc2c(c1COc1cc(F)ccc1C)N(C)C(=O)C(C)(C)N2` [Control compound C, 8-(5-fluoro-2-methylphenoxymethyl)-7-(5-hydroxy-2-methoxyphenyl)-1,3,3-trimethyl-3,4-dihydro-1H-quinoxalin-2-one, reference compound]: 71 % DEX; for `COc1cc(OCC(O)CC(=O)OC(C)(C)C)ccc1-c1ccc2c(c1COc1cc(F)ccc1C)N(C)C(=O)C(C)(C)N2` (stereo not drawn) [Compound 7-2, 7-[4-(3-t-butoxycarbonyl-2-hydroxypropyl)oxy-2-methoxyphenyl]-8-(5-fluoro-2-methylphenoxymethyl)-1,3,3-trimethyl-3,4-dihydro-1H-quinoxalin-2-one]: above 99 % DEX.
